# In patent US20230174493A1, “Solid Dispersions of Amorphous 3,4-Diphenyl-4,5-Dihydro-1H-Pyrazole Derivatives, Compositions Comprising them and Uses Thereof as Cannabinoid CB1 Receptor Inhibitors” (INVERSAGO PHARMA INC., priority 2020, published 2023):
# Tests used:
# [1] = Pharmacokinetic properties in Beagle dogs, single oral dose compared with intravenous administration; conditions: dog, in vivo, 2 mg/kg, fasted
# Experimental: Pharmacokinetic properties were measured in Beagle dogs. Administration was done orally and compared with intravenous administration (2 mg/kg, in DMSO/tetraglycol/PEG400/water, 10:20:25:45). Each formulation was tested as a single dose on three (3) animals except for F6(b), which was tested on five (5) animals. Dogs were sampled at times 0, 1 h, 4 h, 8 h, 12 h, 24 h, 36 h, 48 h, and 72 h to give full time-concentration profiles. All tests were carried out with fasted dogs except test on normal dogs using F-SEDDS, which was carried on fed dogs. The results are as presented as an average between the tested animals.
# [2] = Solubility of crystalline form (development efforts)
# [3] = Oral bioavailability of crystalline form (development efforts)
smiles,measurement,setting,value
C/C(N)=N/C(=N\S(=O)(=O)c1ccc(C(F)(F)F)cc1)N1C[C@H](c2ccccc2)C(c2ccc(Cl)cc2)=N1 [Compound 1],C0,"[1]; i.v. 2 mg/kg in DMSO/tetraglycol/PEG400/water 10:20:25:45, Normal dogs (about 11 kg)",2220 ng/mL
same,C0,"[1]; i.v. 2 mg/kg in DMSO/tetraglycol/PEG400/water 10:20:25:45, Small dogs (about 7.5 kg)",1820 ng/mL
same,AUC(0-inf),"[1]; i.v. 2 mg/kg, Normal dogs (about 11 kg)",15400 ng·h/mL
same,half-life,"[1]; i.v. 2 mg/kg, Normal dogs (about 11 kg), read-out: T½ (converted)",353 min
same,Solubility,[2],essentially insoluble
same,Oral bioavailability,[3],very poor oral bioavailability
